Reference: PMC10487843, “Evaluation of Anticancer and Anti-Inflammatory Activities of Some Synthetic Rearranged Abietanes” (International Journal of Molecular Sciences, 2023)
In brackets after ≈: the same amount, converted by molar mass. Like-named read-outs stand apart in the source and are kept apart here.

Experiments:
[1] = system: human hepatocarcinoma (HepG2); test: MTT cell viability assay, HepG2; type: cell-based; settings: for IC80: 80% growth inhibition
Text: In this study, we employed the MTT (3-(4,5-dimethyl thiazol-2-yl)-2,5-diphenyltetrazolium bromide) colorimetric assay to evaluate the cytotoxic activity of selected abietanes (compounds 5, 7, 13, 17, and 19) against three tumor cell lines: human colon adenocarcinoma (HT29), human hepatocarcinoma (HepG2), and murine melanoma (B16–F10). The MTT assay relied on the conversion of MTT to formazan by viable cells, with the formazan concentration proportional to the number of viable cells. The concentrations required for 50 and 80% growth inhibition (IC50 and IC80) were determined for each compound.
The human colorectal adenocarcinoma cell line HT29 (ECACC no. 9172201; ATCC no. HTB-38), the human hepatocarcinoma cell line HepG2 (ECACC no. 85011430), the mouse melanoma cells B16–F10 (ATCC no. CRL-6475), and the murine monocyte/macrophage like RAW 264.7 cell line (ATCC no, TIB-71) were obtained from the cell bank of the University of Granada, Spain. The tumor cell lines were cultured in DMEM (Dulbecco’s modified Eagle’s medium) supplemented with 2 mM glutamine, 10% heat-inactivated FCS (fetal calf serum), and 50 μg/mL of gentamicin (for all cancer cell lines). The RAW 264.7 cell line was cultured in RPMI1640 medium, supplemented with 2 mM glutamine, 10% heat-inactivated FCS, and 50 μg/mL of gentamicin. All cell lines were incubated at 37 °C, in an atmosphere of 5% CO2 and 95% humidity. The culture media were changed every 48 h, and the confluent cultures were separated with a trypsin solution (0.25% EDTA). In all experiments, monolayer cells were grown to 80–90% confluence in sterile cell culture flasks.
The effects of the compounds on the cell viability were established using the MTT method (Sigma, St. Louis, MO, USA). The cytotoxicity of the compounds was assessed by measuring the absorbance of MTT dye staining of metabolically competent cells. The cells were cultivated in 96-well plates at 6.0 × 10^3 cells/mL for the HT29 and RAW 264.7 cell lines, at 5.0 × 10^3 cells/mL for B16–F10 cells, and 15.0 × 10^3 cells/mL for the HepG2 cell line, with a final volume of 200 μL per well being incubated with the different products (0–100 μg/mL). After 72 h, 100 μL of MTT solution (0.5 mg/mL) in 50% of PBS and 50% of the medium was added to each well. Following incubation for 1.5 h, formazan was resuspended in 100 μL of DMSO, and each concentration was tested in triplicate. The cell viability relative to the untreated control cells was determined by measuring the absorbance at 570 nm using an ELISA plate reader (Tecan Sunrise MR20–301, TECAN, Grödig, Austria).

[2] = system: NO release in LPS-stimulated RAW 264.7 macrophage cells; test: Inhibition of nitric oxide production (Griess nitrite assay) in LPS-activated RAW 264.7 macrophages; type: cell-based, murine; settings: LPS-stimulated RAW 264.7, 48 h; for NO inhibition: ¾ IC50 concentration; for IC50: Mus musculus, RAW264.7
Protocol: To evaluate the anti-inflammatory activity of the rearranged abietanes (5, 7, 17, and 19) along with their precursor 13, we conducted experiments on RAW 264.7 macrophage cells, a well-known model for screening anti-inflammatory compounds. The macrophages were stimulated with LPS to induce the maximum release of nitric oxide (NO) during the inflammatory response. Subsequently, the different compounds were incubated with the cells at sub-cytotoxic concentrations for 48 h (Figure 9). Next, we determined the concentration of nitrites in the culture medium, which was proportional to the amount of NO release.
Nitrite production was analyzed using the Griess reaction method. The concentration of nitrite was used as an indication of nitric oxide (NO) production. RAW 264.7 cells were seeded at 6 × 10^4 cells/well in 24-well cell culture plates, supplemented with 10 μg/mL of lipopolysaccharide (LPS). […] The Griess reaction was conducted by mixing 150 μL of supernatant test samples or sodium nitrite standard (0–120 μM) with 25 μL of Griess reagent A (0.1% n-(1-naphthyl) ethylenediamine dihydrochloride) and 25 μL of Griess reagent B (1% sulfanilamide in 5% of phosphoric acid) in a 96-well plate. The mixture was incubated at room temperature for 15 min, after which the absorbance was measured at 540 nm using an ELISA plate reader (Tecan Sunrise MR20–301, TECAN, Grödig, Austria). To determine the concentration of nitrite in each sample supernatant, the absorbance was referenced to the nitrite standard curve. To determine the percentage of NO production, the increase between the negative control (untreated cells) and the positive control (cells only with 10 μg/mL of LPS) was assigned 100%.

[3] = system: HT29 cells; test: Mitochondrial membrane potential by flow cytometry (Rh123/DHR); type: cell-based, human; settings: HT29, 72 h
Text: Apoptotic effects induced by anticancer agents can be mediated through two major pathways: intrinsic and extrinsic apoptotic pathways. The intrinsic pathway involves the disruption of the mitochondrial membrane and changes in the mitochondrial membrane potential (MMP), while the extrinsic pathway leads to apoptosis without initial MMP alterations. […] Further investigations are necessary to elucidate the detailed molecular mechanisms underlying their apoptotic effect.
We analyzed the electrochemical gradient across the mitochondrial membrane via analytical flow cytometry, using dihydrorhodamine (DHR). A total of 5 × 10^4 HT29 cells were plated in 24-well plates for this assay. […] Next, the medium was replaced by adding fresh solution with DHR to a final concentration of 5 μg/mL. The cells were incubated at 37 °C for 1 h, washed, and resuspended in PBS with 5 μg/mL of PI. The fluorescence intensity was measured using a FACScan flow cytometer (fluorescence-activated cell sorter). The experiments were performed two times, each with three replications per assay.

[4] = Homo sapiens, HepG2, 72 h, read-out: IC50

| IC50 [1, 4] [µg/mL] | IC50 ([1]; 72 h, listed as Pygmaeocin B (5)) [µg/mL] | Compound | IC80 ([1]; Homo sapiens, 72 h) [µg/mL] | NO inhibition [2] [%] | IC50 [2] [µg/mL] | decrease in positive Rh123-stained cells with regard to untreated control ([3]; IC50 concentration) | decrease in positive Rh123-stained cells with regard to untreated control ([3]; IC80 concentration) [%] |
| --- | --- | --- | --- | --- | --- | --- | --- |
| 5.58 ± 0.93 (≈ 18.6 µM) |  | CC(C)C1=CC2=C(C(=O)C1=O)[C@@]1(C)CCCC(C)(C)[C@@H]1CC2 [Compound 13] | 7.67 ± 0.8 (≈ 25.5 µM) | 99.6 | 2.03 ± 0.09 (≈ 6.76 µM) | around 40% | 57 |
| 8.98 (≈ 28.9 µM) | 8.99 ± 1.12 (≈ 29 µM) | CC(C)C1=CC2=C(C(=O)C1=O)C1=CC(=O)CC(C)(C)[C@@]1(C)C=C2 [Compound 5, Pygmaeocin B] | 11.4 ± 1.08 (≈ 36.8 µM) | 100 | 0.033 ± 0.0008 (≈ 0.106 µM) | 54% | 61 |
